Measured values taken from patent publication US5843911A, “Hyaluronidase inhibitor containing god-type ellagitannin as active ingredient” (Suntory Limited, priority 1995, dated 1998).

Target: T1, bovine testis-derived hyaluronidase (Type IV of Sigma) (Bos taurus, UniProt Q2YDK3)
T1 construct: purchased Sigma Type IV; host or cells: bovine testis
T1 sequence (Q2YDK3 36-553): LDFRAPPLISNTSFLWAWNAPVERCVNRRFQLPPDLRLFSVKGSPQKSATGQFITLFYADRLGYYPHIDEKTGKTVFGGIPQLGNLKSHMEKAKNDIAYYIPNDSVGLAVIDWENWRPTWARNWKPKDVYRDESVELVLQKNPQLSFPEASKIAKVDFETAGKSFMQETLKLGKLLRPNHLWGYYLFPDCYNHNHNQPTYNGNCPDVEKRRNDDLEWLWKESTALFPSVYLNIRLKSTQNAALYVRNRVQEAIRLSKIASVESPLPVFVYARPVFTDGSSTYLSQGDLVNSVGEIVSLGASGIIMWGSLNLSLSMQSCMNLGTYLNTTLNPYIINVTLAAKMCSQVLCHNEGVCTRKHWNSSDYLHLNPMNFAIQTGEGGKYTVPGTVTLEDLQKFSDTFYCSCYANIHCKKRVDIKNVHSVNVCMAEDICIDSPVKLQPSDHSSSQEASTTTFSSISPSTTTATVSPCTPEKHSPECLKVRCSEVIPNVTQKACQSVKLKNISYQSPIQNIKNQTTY
Assay: Assay for the hyaluronidase inhibiting activity (inhibition of compound 48/80 activation of inactivated enzyme, colorimetric A585)
Assay type: biochemical
Details: 0.1M acetate buffer pH 4.0, 37° C., enzyme activated with compound 48/80, sodium hyaluronate substrate
Procedure: Stated more specifically, a suitable amount of a test sample was dissolved in 100 μl of a 0.1M acetate buffer solution (pH 4.0) and the solution was pipetted into a test tube. Following the addition of 0.10 mg (100 NF units) of the enzyme dissolved in 50 μl of the same buffer solution, the mixture was incubated at 37° C. for 20 min. […] Thereafter, 200 μg of sodium hyaluronate derived from a microorganism dissolved in 250 μl of the same buffer solution was added and the mixture was incubated at 37° C. for 40 min. Finally, 100 μl of 0.4N NaOH was added and, after cooling with ice, 100 μl of a borate buffer solution (pH 9.10) was added and the mixture was boiled for 3 min; after cooling with ice, 3 ml of a p-dimethylaminobenzaldehyde solution was added and the mixture was incubated for 20 min at 37° C. before [MUT] measurement was conducted. In place of the sample solution, 0.1M acetate buffer solution (pH 4.0) was used to prepare a control. […] The hyaluronidase inhibiting activity of the sample solution was expressed by percent inhibition as determined from the following equation: [formula] where A: [MUT] of the control solution B: [MUT] of the blank for the control solution C: [MUT] of the sample solution D: [MUT] of the blank for the sample solution.

- IC50: 299 µM
Structure (SMILES): O=C(O)c1cc(=O)c2c(OCC(O)COc3cccc4oc(C(=O)O)cc(=O)c34)cccc2o1 [Sodium cromoglycate]
